# Reference: patent US20050152835A1, “Technetium-99M glucarate methods of use for monitoring tissues” (priority 2003, published 2005)
# Tests used:
# MCF7/D40 tumors = assay: Biodistribution in mice bearing MCF7/D40 tumors; format: in vivo, SCID mice
# Procedure: Tumor cell lines used. MCF7/S: Cells are parental, drug (doxorubicin) sensitive, breast carcinoma cells. MCF7/D40: Cells were generated in vitro by successive culturing parental MCF7 cells in slowly increasing concentrations of doxorubicin with a total selection time of 31 months. Twenty-eight SCID mice were studied. MCF7/S or MCF7/D40 tumors were grown for 10-14 days after subcutaneous injection of 1×10^6 cells into the right thigh. Groups of mice with the xenografted tumors included: (MCF7/S group: MIBI: n=9; GLA: n=8) and (MCF7/D40 group: MIBI: n=6; GLA: n=5).
# ^99mTc-GLA or ^99mTc-MIBI (5-8 mCi, 185-296 MBq) was injected via a jugular vein catheter. Dynamic images were acquired for 2 hours. Twenty-four projections were obtained, one from each camera. Each scintillation event within the camera's NaI crystal was registered as the digitized outputs from the camera's four photomultiplier tubes. The four photomultiplier outputs were compared to a 20-bit look-up table derived from a calibration procedure that involved moving a collimated source across the camera face.
# Tumors and organs were harvested and counted in a dose calibrator. The percent injected dose per gram (% ID/g) was calculated. Membrane preparations made from MCF7/S and MCF7/D40 tumors were immunoblotted with the mouse monoclonal antibody C219 against Pgp followed by a secondary antibody, which was detected by chemiluminescence. […] No immunodetectable MDR1 Pgp was presented in MCF7/S cells.
# [1] = system: ischemic-reperfused myocardium; assay: FASTSPECT hot spot imaging and washout kinetics in ischemic-reperfused rat heart models (IR30, IR90); format: in vivo; parameters: half-time value (t1/2) of washout, late phase / half-time value (t1/2) of washout, early phase: unit not given here; settings: for GLA hot spot size (% LV): 120-min image, mean ± SEM; for GLA hot spot size (% IAR): normalized to ischemic area at risk; for averaged ratio of whole-heart hot spot activity to normal myocardial activity: two hours after injection
# Procedure: Ischemic-Reperfused Rat Heart Models were prepare from Male Sprague-Dawley rats (weight, 250-300 g) that were anesthetized with 1.0%-1.5% isoflurane. The model of myocardial ischemia-reperfusion was developed using know techniques. The rat was prepared by first removing the fur from the chest and neck region with electric clippers. The jugular vein was catheterized through a surgical procedure. An incision was made over the jugular furrow, and blunt and sharp dissection was used to isolate the jugular vein. A PE-10 catheter was advanced through a nick made by micro scissors and then secured by ligatures. After tracheotomy, the rats were ventilated using a volume-controlled Inspira Advanced Safety Ventilator (Harvard Apparatus, Inc.) with a mixture of oxygen and room air. Using each animal's weight, the tidal volume (1.2 mL/100 g) and respiration rate (65-70 breaths/min) were automatically calculated in Safe Range settings (Harvard Apparatus). With a left intercostals thoracotomy incision, the chest was opened at the fourth or fifth intercostal space. The pericardium was opened and the heart was exposed. A small, curved, tapered needle threaded 5-0 silk through the tissue between the pulmonary cone and the left auricular appendage. A ligature was placed around the LCA with a small amount of myocardium. The ligature was pulled tight by passing the suture through a polyethylene tubing and clamping it for coronary occlusion. After the LCA was occluded for 30 or 90 min, 30 min of reperfusion was achieved by releasing the ligature. Hydrochloride lidocaine (5%) was administered via intravenous injection and cardiac surface drop when ventricular fibrillation was induced by LCA occlusion or reflow. During the period of surgery and ischemia-reperfusion treatment, the body temperature of the animal was maintained with a heating pad. The chest of the rat was closed before the animal was imaged with FASTSPECT.
# Eighteen rats were divided into 2 groups to receive regional myocardial ischemia-reperfusion treatments. Group 1 animals (IR30, n=12 [IR=ischemia-reperfusion]) were treated by ligating the LCA for 30 min and releasing the ligature for 30 min. The LCA in group 2 animals (IR90, n=6) was ligated for 90 min and then released for 30 min.
# Radiopharmaceutical preparation; GLA kits were provided by Molecular Targeting Technologies Inc. The reagent in the vial was a sterile, nonpyrogenic, lyophilized composition of […], GLA, sodium bicarbonate, and hydrochloric acid. A vial of GLA was reconstituted by the addition of 1 mL of ^99mTc as sodium pertechnetate (no <2.59 GBq [no <70 mCi]) in accordance with the manufacturer's instructions. The solution in the vial was allowed to stand at room temperature for 15 min. ^99mTc-GLA radiochemical purity (RCP) was verified by thin-layer liquid chromatography using Gelman instant thin-layer silica gel (ITLC-SG) strips developed in saline and acetone. In the ITLC-SG strip developed by saline, ^99mTc-colloid remained at the origin while ^99mTc-GLA and ^99mTc-pertechnetate migrated near the solvent front. In the strip developed by acetone, ^99mTc-GLA and ^99mTc-colloid remained at the origin while ^99mTc-pertechnetate moved near the solvent front. The RCP of ^99mTc-GLA exceeded 95% for all experimental injections. ^99mTc-GLA was used within 3 h after preparation.
# The high-resolution stationary SPECT system, FASTSPECT, was built in the Department of Radiology Research Laboratory at The University of Arizona (as described by references 9-11 in Liu et. al, J. Nucl. Med. (2004), vol. 45, pp 1251-1259). In this system, 24 small modular γ cameras are arranged in 2 circular arrays with a cylindric aperture. […] Twenty-four 1-mm diameter pinholes were drilled in the aperture such that a point source in the center of the field of view (FOV) is simultaneously projected to the center of each camera. The dead space between adjacent cameras at the director surface is 7% of the total area. […]
# [2] = Table 2, MCF7/D40 mice, 2 hours after injection
# [3] = Table 4 (Example 3), MCF7/D40 mice
substance,measurement,setting,value
^99mTc-glucarate,tumor-to-muscle ratio relative to that for 99mTc-sestamibi (fold higher),"MCF7/D40 tumors; MCF7/D40 tumors, 2 hours after injection",19.2 fold
same,"Biodistribution, blood",MCF7/D40 tumors; [2],1.07 ± 0.14 % ID/gm
same,"Biodistribution, heart",MCF7/D40 tumors; [2],0.55 ± 0.10 % ID/gm
same,"Biodistribution, kidneys",MCF7/D40 tumors; [2],22.10 ± 1.59 % ID/gm
same,"Biodistribution, liver",MCF7/D40 tumors; [2],1.56 ± 0.18 % ID/gm
same,"Biodistribution, lung",MCF7/D40 tumors; [2],1.41 ± 0.54 % ID/gm
same,"Biodistribution, muscle",MCF7/D40 tumors; [2],0.25 ± 0.04 % ID/gm
same,"Biodistribution, tumor",MCF7/D40 tumors; [2],1.39 ± 0.12 % ID/gm
same,"Biodistribution, blood",MCF7/D40 tumors; [3],1.07 ± 0.14 % ID/g
same,"Biodistribution, heart",MCF7/D40 tumors; [3],0.55 ± 0.1 % ID/g
same,"Biodistribution, kidneys",MCF7/D40 tumors; [3],22.10 ± 1.59 % ID/g
same,"Biodistribution, liver",MCF7/D40 tumors; [3],1.56 ± 0.18 % ID/g
same,"Biodistribution, lung",MCF7/D40 tumors; [3],1.41 ± 0.54 % ID/g
same,"Biodistribution, muscle",MCF7/D40 tumors; [3],0.25 ± 0.04 % ID/g
same,"Biodistribution, tumor",MCF7/D40 tumors; [3],1.39 ± 0.12 % ID/g
same,Tumor/Blood ratio,MCF7/D40 tumors; [3],1.38 ± 0.19
same,Tumor/Muscle ratio,MCF7/D40 tumors; [3],6.23 ± 0.89
same,mean tumor-to-muscle ratio,MCF7/D40 tumors; drug-resistant tumors (MCF7/D40),6.2
same,GLA hot spot size (% LV),[1]; IR30 (n = 12),28.4 ± 2.1 % LV
same,GLA hot spot size (% IAR),[1]; IR30 (n = 12),58.4 ± 2.7 % IAR
same,time after injection the infarct remained well defined,[1]; IR30 and IR90 hearts,at least 120 min
same,"hot spot/normal ratio in group 1 (IR30) relative to group 2 (IR90), fold lower",[1]; IR30 vs IR90,1.94 fold
same,GLA hot spot size (% LV),[1]; IR90 (n = 6),42.0 ± 2.6 % LV
same,GLA hot spot size (% IAR),[1]; IR90 (n = 6),75.9 ± 2.7 % IAR
same,final ratio of hot spot to normal myocardial activity,[1]; group 1 (IR30),4.91±0.71
same,averaged ratio of whole-heart hot spot activity to normal myocardial activity,[1]; group 1 (IR30),4.1±0.3
same,final ratio of hot spot to normal myocardial activity,[1]; group 2 (IR90),9.53±1.76
same,averaged ratio of whole-heart hot spot activity to normal myocardial activity,[1]; group 2 (IR90),7.1±1.1
same,"half-time value (t1/2) of washout, early phase","[1]; hot spot, IR30",2.4±0.4
same,"half-time value (t1/2) of washout, late phase","[1]; hot spot, IR30",216.3±23.8
same,fractional retention (% peak) by the end of experiment,"[1]; hot spot, IR30 (30-min LCA occlusion, 30-min reperfusion), 2 h",31.0±1.3 % peak
same,"half-time value (t1/2) of washout, early phase","[1]; hot spot, IR90",3.8±1.1
same,"half-time value (t1/2) of washout, late phase","[1]; hot spot, IR90",511.5±74.2
same,fractional retention (% peak) by the end of experiment,"[1]; hot spot, IR90 (90-min LCA occlusion, 30-min reperfusion), 2 h",42.1±4.0 % peak
same,"half-time value (t1/2) of washout, early phase","[1]; normal zone, IR30",1.6±0.4
same,"half-time value (t1/2) of washout, late phase","[1]; normal zone, IR30",66.6±5.5
same,fractional retention (% peak) by the end of experiment,"[1]; normal zone, IR30, 2 h",7.5±1.0 % peak
same,"half-time value (t1/2) of washout, early phase","[1]; normal zone, IR90",2.0±0.2
same,"half-time value (t1/2) of washout, late phase","[1]; normal zone, IR90",49.1±2.9
same,fractional retention (% peak) by the end of experiment,"[1]; normal zone, IR90, 2 h",6.4±0.9 % peak
